The nature of data set [1]: Permeability efflux ratio in MDCK cells. The data set is classed as ADME, cell-based, Canis lupus familiaris. The following applies: dog.
Data set [2] can be described thus: Unbound intrinsic clearance in rat liver microsomes. The data set is classed as ADME, Microsome.
Data set [3] deals with Cystic fibrosis transmembrane conductance regulator (Homo sapiens, UniProt P13569, F508DEL). The data set can be described thus: Potentiation of CFTR F508del mutant (unknown origin) expressed in human CFBE41o- cells co-expressing YFP incubated for 10 mins by halide potentiator assay. In kind it is cell-based.
Data set [4] in a line: Permeability of compound across apical to basolateral membrane in MDCK cells. In kind it is ADME, cell-based, Canis lupus familiaris. As to conditions: dog, read-out: permeability; call rule not given here.
Data set [5] in a line: AUC in rat at 5 mg/kg, po. In kind it is ADME, organism-based. Details: dose 5 mg/kg. The following applies: in vivo.
Data set [6] is described as follows: Unbound intrinsic clearance in rat hepatocytes. The data set is classed as ADME, cell-based, Hepatocyte.
Data set [7] in a line: Half life in Sprague-Dawley rat at 1 mg/kg, iv. As to conditions: in vivo. In kind it is ADME, organism-based.
Data set [8] can be described thus: Clearance in Sprague-Dawley rat at 1 mg/kg, iv. The following applies: in vivo. The data set is classed as ADME, organism-based.
A short description of data set [9]: Unbound clearance in Sprague-Dawley rat at 1 mg/kg, iv. The data set is classed as ADME, organism-based. As to conditions: in vivo.
The nature of data set [10]: Unbound intrinsic clearance in human liver microsomes. In kind it is ADME, Microsome. On the technique in general: Liver microsomes are vesicles of endoplasmic reticulum, rich in cytochrome P450 enzymes.
Data set [11] is described as follows: Volume of distribution at steady state in Sprague-Dawley rat at 1 mg/kg, iv. In kind it is ADME, organism-based. As to conditions: in vivo, read-out: Vdss.
Data set [12] in a line: Kinetic aqueous solubility of the compound at pH 7.4. In kind it is physicochemical. The following applies: buffer, read-out: Kinetic_solubility.
A short description of data set [13]: Inhibition of CYP450 (unknown origin). The following applies: human. In kind it is ADME.
Data set [14] has as its target T1, Nuclear receptor subfamily 1 group I member 2 (Homo sapiens, UniProt O75469).
T1 sequence (O75469 whole entry): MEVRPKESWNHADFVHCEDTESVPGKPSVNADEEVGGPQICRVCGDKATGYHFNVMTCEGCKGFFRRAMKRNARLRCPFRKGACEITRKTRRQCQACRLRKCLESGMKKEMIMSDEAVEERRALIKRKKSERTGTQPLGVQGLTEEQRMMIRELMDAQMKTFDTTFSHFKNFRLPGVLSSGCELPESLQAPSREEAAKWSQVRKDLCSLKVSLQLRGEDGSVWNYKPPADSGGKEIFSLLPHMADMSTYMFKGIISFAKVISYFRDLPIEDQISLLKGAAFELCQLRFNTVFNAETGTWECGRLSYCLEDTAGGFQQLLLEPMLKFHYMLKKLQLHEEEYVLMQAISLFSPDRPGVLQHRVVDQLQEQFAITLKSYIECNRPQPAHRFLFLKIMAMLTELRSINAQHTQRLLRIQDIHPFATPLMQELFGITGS
Nature of the data set: Activation of PXR (unknown origin) at 10 uM by CYP450 induction assay relative to rifampicin. In kind it is ADME.

Chain of Cystic fibrosis transmembrane conductance regulator (P13569 as listed by the source): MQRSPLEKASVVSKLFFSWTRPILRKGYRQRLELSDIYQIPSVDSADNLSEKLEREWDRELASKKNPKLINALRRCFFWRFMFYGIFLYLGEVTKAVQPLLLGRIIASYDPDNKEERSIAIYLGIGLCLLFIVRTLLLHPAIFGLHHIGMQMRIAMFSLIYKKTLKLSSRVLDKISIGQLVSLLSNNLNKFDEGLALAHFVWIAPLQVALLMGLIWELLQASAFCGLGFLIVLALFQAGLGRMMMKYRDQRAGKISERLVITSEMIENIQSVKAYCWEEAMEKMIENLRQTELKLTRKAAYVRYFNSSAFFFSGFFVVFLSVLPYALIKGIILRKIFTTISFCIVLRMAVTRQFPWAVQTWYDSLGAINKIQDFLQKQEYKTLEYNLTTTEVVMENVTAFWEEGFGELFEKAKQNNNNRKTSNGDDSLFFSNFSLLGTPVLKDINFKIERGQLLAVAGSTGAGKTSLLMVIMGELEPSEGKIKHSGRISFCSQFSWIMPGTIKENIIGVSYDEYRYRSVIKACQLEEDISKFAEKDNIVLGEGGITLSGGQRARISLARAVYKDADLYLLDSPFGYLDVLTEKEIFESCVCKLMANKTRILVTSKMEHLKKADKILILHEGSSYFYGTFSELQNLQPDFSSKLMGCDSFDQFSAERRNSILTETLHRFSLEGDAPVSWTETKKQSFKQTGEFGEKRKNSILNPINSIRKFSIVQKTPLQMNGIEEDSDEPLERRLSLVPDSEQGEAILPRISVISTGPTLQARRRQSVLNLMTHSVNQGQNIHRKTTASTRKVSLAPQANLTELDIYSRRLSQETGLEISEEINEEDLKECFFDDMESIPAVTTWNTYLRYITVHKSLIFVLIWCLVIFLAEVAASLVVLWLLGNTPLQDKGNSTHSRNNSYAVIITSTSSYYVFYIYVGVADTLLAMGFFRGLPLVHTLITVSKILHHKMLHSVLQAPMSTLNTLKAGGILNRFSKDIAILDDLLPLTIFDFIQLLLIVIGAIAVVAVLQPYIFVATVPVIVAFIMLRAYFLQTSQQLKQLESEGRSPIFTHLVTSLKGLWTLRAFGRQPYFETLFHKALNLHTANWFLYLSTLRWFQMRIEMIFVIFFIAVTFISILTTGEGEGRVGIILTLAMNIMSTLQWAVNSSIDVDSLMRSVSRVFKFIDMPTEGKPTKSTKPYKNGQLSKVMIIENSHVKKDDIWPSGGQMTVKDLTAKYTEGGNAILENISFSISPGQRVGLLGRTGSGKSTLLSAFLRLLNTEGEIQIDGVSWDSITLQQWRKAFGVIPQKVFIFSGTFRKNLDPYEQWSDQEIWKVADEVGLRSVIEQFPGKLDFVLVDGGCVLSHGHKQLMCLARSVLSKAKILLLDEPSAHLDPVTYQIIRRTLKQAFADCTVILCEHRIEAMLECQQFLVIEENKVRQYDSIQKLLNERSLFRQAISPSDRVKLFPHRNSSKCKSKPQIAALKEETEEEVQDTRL

As a reminder, the efflux ratio is a quotient of directional permeabilities that is used to spot active efflux. One may read the EC50 as the midpoint of the concentration-response curve. As for `NC(=O)c1cc(S(=O)(=O)N2CCCCC2)sc1NC(=O)c1ccn[nH]1`, in data set [1], the efflux ratio worked out at 40. Further, the CL free in data set [2] amounted to 250 mL/min/kg. For the same compound, the EC50 in data set [3] amounted to 13 nM. In data set [4], the Papp A→B was 0.5 ×10⁻⁶ cm/s.
For the compound `Nc1cc(S(=O)(=O)c2ccc(OC(F)(F)F)cc2)cnc1C(=O)NCC1(O)CC1`, the CL free in data set [2] came to 93.3 mL/min/kg. Besides, the EC50 in [3] turned out to be 2.8 nM.
`CN(C[C@@H](O)C(F)(F)F)C(=O)c1ncc(S(=O)(=O)c2ccc(F)cc2)cc1N`: in data set [3], the EC50 is more than 2000 nM.
What is called AUC is the area under the concentration-time curve, a measure of exposure. Regarding `CC(C)(O)C(=O)Nc1sc(S(=O)(=O)c2ccc(F)cc2)cc1C(N)=O`, the efflux ratio in data set [1] stood at 5. For the same compound, the CL free in [2] is 30 mL/min/kg; in data set [6], 46.7 mL/min/kg. The AUC in [5] was found to be 5600 ng·h/mL. Further, the EC50 in data set [3] was 26 nM. Also, the Papp A→B in data set [4] was found to be 4 ×10⁻⁶ cm/s.
The half-life is the time in which the quantity being followed falls by half. A low value points to rapid decline. What is called clearance is a measure of how efficiently the substance is removed, as volume per time. Low readings indicate a low capacity for elimination, high ones a high capacity for elimination. For the compound `Nc1cc(S(=O)(=O)c2ccc(F)cc2)cnc1C(=O)NC[C@@H](O)C(F)(F)F`, the CL free was found to be 26.7 mL/min/kg in [2], 26.8 mL/min/kg in data set [9] and 17 mL/min/kg in data set [10]. For the same compound, in data set [7], the half-life is more than 15 h. In data set [8], this compound gave a clearance of 2.17 mL/min/kg. In data set [3], the EC50 is 7.8 nM. Besides, in data set [11], the Vd is 2.9 L/kg.
In the case of `Nc1cc(S(=O)(=O)c2ccc(OC(F)(F)F)cc2)cnc1C(=O)NC[C@@H](O)C(F)(F)F`, the CL free in data set [2] came out at 58.3 mL/min/kg; in data set [9] it was 86.7 mL/min/kg; in [10], 36.7 mL/min/kg. Moreover, in data set [7], the half-life is more than 50 h. The clearance in data set [8] was 1.33 mL/min/kg. In addition, the EC50 in data set [3] was found to be 3.4 nM. In addition, the solubility kinetic in data set [12] is less than 19 µM. Also, the “inhibition (INH)” value in data set [13] is recorded as “Not Active”. The compound further yielded an Activity in [14] of 10%. Moreover, in data set [11], the Vd was found to be 6 L/kg.
In the case of `Nc1cc(S(=O)(=O)c2ccc(C(F)(F)F)cc2)cnc1C(=O)N1CCC[C@H]1CO`, the EC50 in data set [3] is more than 2000 nM.
`Nc1cc(S(=O)(=O)c2ccc(F)cc2)cnc1C(=O)N1CC(O)(C(F)(F)F)C1` registered a CL free in [2] of 28.3 mL/min/kg. Besides, the EC50 in [3] was found to be 1.1 nM.
Consider `Nc1cc(S(=O)(=O)N2CCC(OC(F)(F)F)CC2)cnc1C(=O)NCC(O)C(F)(F)F` (stereo not given), for which the CL free in data set [2] was determined as 300 mL/min/kg; in data set [9], 317 mL/min/kg; in data set [10], 130 mL/min/kg. This compound gave a half-life in data set [7] of 1.3 h. In addition, the clearance in data set [8] is 31.7 mL/min/kg. Also, in data set [3], the EC50 came out at 5 nM. The Vd in data set [11] was 3.2 L/kg.
